Reference: patent publication US11058661B2, “Compositions and methods for lowering triglycerides in a subject on concomitant statin therapy and having hsCRP levels of at least about 2 mg/L” (priority 2018, dated 2021)

How the values were obtained:
Assay type in all cases: in vivo, human
[1] = system: subjects with Age-Associated Memory Impairment (safety population); experiment: AAMI pilot study: safety and tolerability
Procedure: All randomized subjects that received at least 1 dose of study medication were included in the Safety Population.
Safety evaluations were based on the safety population. Safety and tolerability were assessed in terms of AEs, vital signs, 12-lead ECG, clinical laboratory data, medical history, and study drug compliance. Safety and tolerability data were presented by treatment group.

[2] = system: patients with baseline hsCRP ≥2.0 mg/L (safety population); experiment: ANCHOR post-hoc subgroup: treatment-emergent adverse events
Source text: The evaluation of safety included monitoring of treatment-emergent adverse events (TEAEs), defined as any AEs that began after the first dose of study medication or that worsened in severity during the double-blind treatment period. TEAEs reported herein included total TEAEs and those occurring in 3% […] of patients in any treatment group of the overall ANCHOR study population (i.e., nausea, diarrhea, nasopharyngitis, and arthralgia). The median difference in percent change from baseline between 4 g per day EPA-E and placebo groups for the primary efficacy variable and additional assessments were estimated with the Hodges-Lehmann method (P values from the Wilcoxon rank-sum test for treatment comparisons) where departures from normality were observed; for normally distributed parameters, an ANCOVA model was used with least square means (LS) and standard error (SE). Missing values were imputed using the last-observation-carried-forward method. For all post hoc analyses, the alpha level for statistical significance was 0.05. Safety analyses were based on the safety population (all randomized patients who received at least one dose of the study drug).

[3] = system: statin-treated patients with fasting TG ≥200 and <500 mg/dL; experiment: ANCHOR study, entire population: fasting TG; details: 4 g/day
Procedure: A multi-center, placebo-controlled, randomized, double-blind, 12-week study is performed to evaluate the efficacy and safety of >96% E-EPA in patients with fasting triglyceride levels ≥200 mg/dl and <500 mg/dl despite statin therapy (the mean of two qualifying entry values needs to be ≥185 mg/dl and at least one of the values needs to be ≥200 mg/dl). The primary objective of the study is to determine the efficacy of >96% E-EPA 2 g daily and 4 g daily, compared to placebo, in lowering fasting TG levels in patients with high risk for cardiovascular disease and with fasting TG levels ≥200 mg/dL and <500 mg/dL, despite treatment to LDL-C goal on statin therapy.
The population for this study is men and women >18 years of age with a body mass index ≤45 kg/m^2 with fasting TG levels greater than or equal to 200 mg/dl and less than 500 mg/dl and on a stable does of statin therapy (with or without ezetimibe). The statin must be atorvastatin, rosuvastatin or simvastatin. The dose of statin must be stable for ≥4 weeks prior to the LDL-C/TG baseline qualifying measurement for randomization. The statin dose will be optimal such that the patients are at their LDL-C goal at the LDL-C/TG baseline qualifying measurements. The same statin at the same dose will be continued until the study ends. […]

Compound: CC/C=C\C/C=C\C/C=C\C/C=C\C/C=C\CCCC(=O)OCC [Icosapent Ethyl, ethyl eicosapentaenoate]
- subjects with nausea Probably Related to the study drug ([1]; 1 g): One
- subjects with nausea Possibly Related to the study drug ([1]; 1 g cohort): two
- subjects with nausea Possibly Related to the study drug ([1]; 2 g cohort): one
- subjects discontinued due to TEAEs ([1]; 2 g group): 2 subjects
- SAE reported ([1]; 2 g group, judged unrelated to study drug): One
- subjects with diarrhea Probably Related to the study drug ([1]; 4 g): Another subject
- subjects with nausea Possibly Related to the study drug ([1]; 4 g cohort): two
- TEAEs reported ([1]; all ethyl-EPA treatment groups, 6 weeks): 105 events
- TEAEs Definitely Related to the study drug ([1]; all groups): No TEAEs
- deaths during the study ([1]; all groups): no deaths
- patients with arthralgia ([2]; 4 g per day): 2.3%
- patients with diarrhea ([2]; 4 g per day): 3.8%
- patients with nasopharyngitis ([2]; 4 g per day): 0.8%
- patients with nausea ([2]; 4 g per day): 2.3%
- patients with TEAEs (irrespective of causality) ([2]; 4 g per day, 60 of 131): 45.8%
- patients discontinued due to an AE ([2]; 4 g per day, subarachnoid hemorrhage, ruptured cerebral aneurysm, brain edema, not considered related): One
- Patients With TEAEs: Any TEAE ([2]; 4 g/day, n = 131): 60 (45.8) n (%)
- Patients With TEAEs: Arthralgia ([2]; 4 g/day, n = 131): 3 (2.3) n (%)
- Patients With TEAEs: Diarrhea ([2]; 4 g/day, n = 131): 5 (3.8) n (%)
- Patients With TEAEs: Nasopharyngitis ([2]; 4 g/day, n = 131): 1 (0.8) n (%)
- Patients With TEAEs: Nausea ([2]; 4 g/day, n = 131): 3 (2.3) n (%)
- reduction of median TG from baseline compared with placebo [3]: 21.5%
